Data published in patent US6770596B1, “Fused tricyclic compounds, process for their preparation, and herbicidal compositions containing them” (Ishihara Sangyo Kaisha Ltd., priority 2002, dated 2004).

Key:
Format in all cases: in vivo
[1] = system: sicklepod (Cassia obtusifolia, CAO); assay: Post-emerge test, sicklepod; settings: 250 g ai/ha, 14 days after application, rating scale 0-100 (0 no damage, 100 complete death)
How it was run: (§1)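 Rates: 8-1000 g ai/ha. Carrier: acetone, 187 l/ha, 0.25% v/v surfactant. Stage: 2-3 leaves, sown 8-21 d earlier. Read-out: 0-100 phytotoxicity at 14 d.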

[2] = system: large crabgrass (Digitaria sanguinalis, DIS); assay: Pre-emerge test, large crabgrass; settings: 250 g ai/ha, 14 days after application, rating scale 0-100 (0 no damage, 100 complete death)
How it was run: (§2)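 Pre-emerge greenhouse screen: sow, wait 1 d, spray acetone solution (8–1000 g ai/ha, 187 l/ha), rate injury 0–100 at 14 DAT.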

[3] = system: soybean (Glycine max L., var. Pella 86, SOY); assay: Post-emerge test, crop damage soybean
How it was run: as §1

[4] = system: lambsquarters (Chenopodium album, CHA); assay: Post-emerge test, lambsquarters; settings: 250 g ai/ha, 14 days after application, rating scale 0-100 (0 no damage, 100 complete death)
How it was run: as §1

[5] = system: upland rice (Oryza sp., var.Tebonnet, RICE); assay: Post-emerge test, crop damage upland rice
How it was run: as §1

[6] = system: ivyleaf morningglory (Ipomoea hederacea, IPH); assay: Post-emerge test, ivyleaf morningglory; settings: 250 g ai/ha, 14 days after application, rating scale 0-100 (0 no damage, 100 complete death)
How it was run: as §1

[7] = system: cocklebur (Xanthium strumariunt, XAS); assay: Pre-emerge test, cocklebur; settings: 250 g ai/ha, 14 days after application, rating scale 0-100 (0 no damage, 100 complete death)
How it was run: as §2

[8] = system: redroot pigweed (Amaranthus retroflexus, AMR); assay: Post-emerge test, redroot pigweed; settings: 250 g ai/ha, 14 days after application, rating scale 0-100 (0 no damage, 100 complete death)
How it was run: as §1

[9] = system: upland rice (Oryza sp., var.Tebonnet, RICE); assay: Pre-emerge test, crop damage upland rice
How it was run: (§3)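 Seeds sown in sandy loam in 10 cm pots one day before pre-emergence spraying of acetone-dissolved compounds at 8–1000 g ai/ha (187 l/ha, track sprayer), greenhouse. Phytotoxicity rated visually 14 days after application on a 0–100 scale (0 no damage, 100 complete death).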

[10] = system: soybean (Glycine max L., var. Pella 86, SOY); assay: Pre-emerge test, crop damage soybean
How it was run: as §3

[11] = system: green foxtail (Setaria viridis, SEV); assay: Post-emerge test, green foxtail; settings: 250 g ai/ha, 14 days after application, rating scale 0-100 (0 no damage, 100 complete death)
How it was run: as §1

[12] = system: wheat (Triticum aestivum); assay: Pre-emerge test, crop damage wheat
How it was run: as §3

[13] = system: field corn (Zea mays L., var. Dekalb 535, CORN); assay: Pre-emerge test, crop damage field corn
How it was run: as §3

[14] = system: cocklebur (Xanthium strumariunt, XAS); assay: Post-emerge test, cocklebur; settings: 250 g ai/ha, 14 days after application, rating scale 0-100 (0 no damage, 100 complete death)
How it was run: as §1

[15] = system: wheat (Triticum aestivum); assay: Post-emerge test, crop damage wheat
How it was run: as §1

[16] = system: johnsongrass (Sorghum halepense, SOH); assay: Pre-emerge test, johnsongrass; settings: 250 g ai/ha, 14 days after application, rating scale 0-100 (0 no damage, 100 complete death)
How it was run: as §2

[17] = system: johnsongrass (Sorghum halepense, SOH); assay: Post-emerge test, johnsongrass; settings: 250 g ai/ha, 14 days after application, rating scale 0-100 (0 no damage, 100 complete death)
How it was run: as §1

[18] = system: barnyardgrass (Echinachloa crus-galli, ECC); assay: Pre-emerge test, barnyardgrass; settings: 250 g ai/ha, 14 days after application, rating scale 0-100 (0 no damage, 100 complete death)
How it was run: as §2

[19] = system: velvetleaf (Abutilon theophrasti, ABT); assay: Post-emerge test, velvetleaf; settings: 250 g ai/ha, 14 days after application, rating scale 0-100 (0 no damage, 100 complete death)
How it was run: as §1

[20] = system: sicklepod (Cassia obtusifolia, CAO); assay: Pre-emerge test, sicklepod; settings: 250 g ai/ha, 14 days after application, rating scale 0-100 (0 no damage, 100 complete death)
How it was run: as §2

[21] = system: velvetleaf (Abutilon theophrasti, ABT); assay: Pre-emerge test, velvetleaf; settings: 250 g ai/ha, 14 days after application, rating scale 0-100 (0 no damage, 100 complete death)
How it was run: as §2

[22] = system: green foxtail (Setaria viridis, SEV); assay: Pre-emerge test, green foxtail; settings: 250 g ai/ha, 14 days after application, rating scale 0-100 (0 no damage, 100 complete death)
How it was run: as §2

[23] = system: redroot pigweed (Amaranthus retroflexus, AMR); assay: Pre-emerge test, redroot pigweed; settings: 250 g ai/ha, 14 days after application, rating scale 0-100 (0 no damage, 100 complete death)
How it was run: as §2

[24] = system: large crabgrass (Digitaria sanguinalis, DIS); assay: Post-emerge test, large crabgrass; settings: 250 g ai/ha, 14 days after application, rating scale 0-100 (0 no damage, 100 complete death)
How it was run: as §1

[25] = system: ivyleaf morningglory (Ipomoea hederacea, IPH); assay: Pre-emerge test, ivyleaf morningglory; settings: 250 g ai/ha, 14 days after application, rating scale 0-100 (0 no damage, 100 complete death)
How it was run: as §2

[26] = system: lambsquarters (Chenopodium album, CHA); assay: Pre-emerge test, lambsquarters; settings: 250 g ai/ha, 14 days after application, rating scale 0-100 (0 no damage, 100 complete death)
How it was run: as §2

[27] = system: barnyardgrass (Echinachloa crus-galli, ECC); assay: Post-emerge test, barnyardgrass; settings: 250 g ai/ha, 14 days after application, rating scale 0-100 (0 no damage, 100 complete death)
How it was run: as §1

[28] = system: common ragweed (Ambrosia artemisiifolia L., AML); assay: Pre-emerge test, common ragweed; settings: 250 g ai/ha, 14 days after application, rating scale 0-100 (0 no damage, 100 complete death)
How it was run: as §2

[29] = system: field corn (Zea mays L., var. Dekalb 535, CORN); assay: Post-emerge test, crop damage field corn
How it was run: as §1

[30] = system: common ragweed (Ambrosia artemisiifolia L., AML); assay: Post-emerge test, common ragweed; settings: 250 g ai/ha, 14 days after application, rating scale 0-100 (0 no damage, 100 complete death)
How it was run: as §1

[31] = var. Pella 86, Glycine max (soybean), in vivo, 14 days
[32] = var. Tebonnet, Oryza sp. (upland rice), in vivo, 14 days
[33] = Triticum aestivum (wheat), in vivo, 14 days
[34] = var. Dekalb 535, Zea mays (field corn), in vivo, 14 days
[35] = post-emerge, 250 g ai/ha, 14 days after application, rating scale 0-100 (0 no damage, 100 complete death)
[36] = pre-emerge, 250 g ai/ha, 14 days after application, rating scale 0-100 (0 no damage, 100 complete death)

SMILES: Cn1nc(-c2c(F)cc3c4c2NC(=O)CN4C(=O)CO3)c(Cl)c1OC(F)F [1-25, 8-[4-Chloro-5-(difluoromethoxy)-1-methyl-1H-pyrazole-3-yl)-9-fluoro-5H-pyrazino[1,2,3-de]-1,4-benzoxazine-3,6(2H, 7H)-dione]
- Post-emerge Herbicidal Activity CAO (phytotoxicity rating) [1]: 100
- Pre-emerge Herbicidal Activity DIS (phytotoxicity rating) [2]: 100
- Post-emerge crop damage SOY (phytotoxicity rating) [3, 31]: 100
- Post-emerge Herbicidal Activity CHA (phytotoxicity rating) [4]: 100
- Post-emerge crop damage RICE (phytotoxicity rating) [5, 32]: 100
- Post-emerge Herbicidal Activity IPH (phytotoxicity rating) [6]: 100
- Pre-emerge Herbicidal Activity XAS (phytotoxicity rating) [7]: 95
- Post-emerge Herbicidal Activity AMR (phytotoxicity rating) [8]: 100
- Pre-emerge crop damage RICE (phytotoxicity rating) [9, 32]: 85
- Pre-emerge crop damage SOY (phytotoxicity rating) [10, 31]: 40
- Post-emerge Herbicidal Activity SEV (phytotoxicity rating) [11]: 100
- Pre-emerge crop damage WHEAT (phytotoxicity rating) [12, 33]: 85
- Pre-emerge crop damage CORN (phytotoxicity rating) [13, 34]: 99
- Post-emerge Herbicidal Activity XAS (phytotoxicity rating) [14]: 100
- Post-emerge crop damage WHEAT (phytotoxicity rating) [15, 33]: 60
- Pre-emerge Herbicidal Activity SOH (phytotoxicity rating) [16]: 100
- Post-emerge Herbicidal Activity SOH (phytotoxicity rating) [17]: 60
- Pre-emerge Herbicidal Activity ECC (phytotoxicity rating) [18]: 100
- Post-emerge Herbicidal Activity ABT (phytotoxicity rating) [19]: 100
- Pre-emerge Herbicidal Activity CAO (phytotoxicity rating) [20]: 100
- Pre-emerge Herbicidal Activity ABT (phytotoxicity rating) [21]: 100
- Pre-emerge Herbicidal Activity SEV (phytotoxicity rating) [22]: 100
- Pre-emerge Herbicidal Activity AMR (phytotoxicity rating) [23]: 100
- Post-emerge Herbicidal Activity DIS (phytotoxicity rating) [24]: 60
- Pre-emerge Herbicidal Activity IPH (phytotoxicity rating) [25]: 100
- Pre-emerge Herbicidal Activity CHA (phytotoxicity rating) [26]: 100
- Post-emerge Herbicidal Activity ECC (phytotoxicity rating) [27]: 95
- Pre-emerge Herbicidal Activity AML (phytotoxicity rating) [28]: 100
- Post-emerge crop damage CORN (phytotoxicity rating) [29, 34]: 35
- Post-emerge Herbicidal Activity AML (phytotoxicity rating) [30]: 99

SMILES: CCC1C(=O)Nc2c3c(cc(F)c2-n2c(=O)cc(C(F)(F)F)n(C)c2=O)OCC(=O)N31 (stereo not drawn) [1-4]
- Post-emerge Herbicidal Activity CAO (phytotoxicity rating) [1]: 0
- Pre-emerge Herbicidal Activity DIS (phytotoxicity rating) [2]: 100
- Post-emerge crop damage SOY (phytotoxicity rating) [3, 35]: 60
- Post-emerge Herbicidal Activity CHA (phytotoxicity rating) [4]: 99
- Post-emerge crop damage RICE (phytotoxicity rating) [5, 35]: 75
- Post-emerge Herbicidal Activity IPH (phytotoxicity rating) [6]: 90
- Pre-emerge Herbicidal Activity XAS (phytotoxicity rating) [7]: 100
- Post-emerge Herbicidal Activity AMR (phytotoxicity rating) [8]: 0
- Pre-emerge crop damage RICE (phytotoxicity rating) [9, 36]: 99
- Pre-emerge crop damage SOY (phytotoxicity rating) [10, 36]: 100
- Post-emerge Herbicidal Activity SEV (phytotoxicity rating) [11]: 60
- Pre-emerge crop damage WHEAT (phytotoxicity rating) [12, 36]: 100
- Pre-emerge crop damage CORN (phytotoxicity rating) [13, 36]: 100
- Post-emerge Herbicidal Activity XAS (phytotoxicity rating) [14]: 90
- Post-emerge crop damage WHEAT (phytotoxicity rating) [15, 35]: 25
- Pre-emerge Herbicidal Activity SOH (phytotoxicity rating) [16]: 100
- Post-emerge Herbicidal Activity SOH (phytotoxicity rating) [17]: 15
- Pre-emerge Herbicidal Activity ECC (phytotoxicity rating) [18]: 100
- Post-emerge Herbicidal Activity ABT (phytotoxicity rating) [19]: 100
- Pre-emerge Herbicidal Activity CAO (phytotoxicity rating) [20]: 99
- Pre-emerge Herbicidal Activity ABT (phytotoxicity rating) [21]: 100
- Pre-emerge Herbicidal Activity SEV (phytotoxicity rating) [22]: 100
- Pre-emerge Herbicidal Activity AMR (phytotoxicity rating) [23]: 100
- Post-emerge Herbicidal Activity DIS (phytotoxicity rating) [24]: 0
- Pre-emerge Herbicidal Activity IPH (phytotoxicity rating) [25]: 100
- Pre-emerge Herbicidal Activity CHA (phytotoxicity rating) [26]: 100
- Post-emerge Herbicidal Activity ECC (phytotoxicity rating) [27]: 50
- Pre-emerge Herbicidal Activity AML (phytotoxicity rating) [28]: 100
- Post-emerge crop damage CORN (phytotoxicity rating) [29, 35]: 0
- Post-emerge Herbicidal Activity AML (phytotoxicity rating) [30]: 80

SMILES: CC1C(=O)Nc2c(-c3ncc(C(F)(F)F)cc3Cl)c(F)cc3c2N1C(=O)CO3 (stereo not drawn) [1-64]
- Post-emerge Herbicidal Activity CAO (phytotoxicity rating) [1]: 85
- Pre-emerge Herbicidal Activity DIS (phytotoxicity rating) [2]: 100
- Post-emerge crop damage SOY (phytotoxicity rating) [3, 35]: 100
- Post-emerge Herbicidal Activity CHA (phytotoxicity rating) [4]: 100
- Post-emerge crop damage RICE (phytotoxicity rating) [5, 35]: 0
- Post-emerge Herbicidal Activity IPH (phytotoxicity rating) [6]: 100
- Pre-emerge Herbicidal Activity XAS (phytotoxicity rating) [7]: 100
- Post-emerge Herbicidal Activity AMR (phytotoxicity rating) [8]: 100
- Pre-emerge crop damage RICE (phytotoxicity rating) [9, 36]: 95
- Pre-emerge crop damage SOY (phytotoxicity rating) [10, 36]: 99
- Post-emerge Herbicidal Activity SEV (phytotoxicity rating) [11]: 100
- Pre-emerge crop damage WHEAT (phytotoxicity rating) [12, 36]: 90
- Pre-emerge crop damage CORN (phytotoxicity rating) [13, 36]: 100
- Post-emerge Herbicidal Activity XAS (phytotoxicity rating) [14]: 100
- Post-emerge crop damage WHEAT (phytotoxicity rating) [15, 35]: 15
- Pre-emerge Herbicidal Activity SOH (phytotoxicity rating) [16]: 100
- Post-emerge Herbicidal Activity SOH (phytotoxicity rating) [17]: 85
- Pre-emerge Herbicidal Activity ECC (phytotoxicity rating) [18]: 100
- Post-emerge Herbicidal Activity ABT (phytotoxicity rating) [19]: 100
- Pre-emerge Herbicidal Activity CAO (phytotoxicity rating) [20]: 100
- Pre-emerge Herbicidal Activity ABT (phytotoxicity rating) [21]: 100
- Pre-emerge Herbicidal Activity SEV (phytotoxicity rating) [22]: 100
- Pre-emerge Herbicidal Activity AMR (phytotoxicity rating) [23]: 100
- Post-emerge Herbicidal Activity DIS (phytotoxicity rating) [24]: 40
- Pre-emerge Herbicidal Activity IPH (phytotoxicity rating) [25]: 100
- Pre-emerge Herbicidal Activity CHA (phytotoxicity rating) [26]: 100
- Post-emerge Herbicidal Activity ECC (phytotoxicity rating) [27]: 100
- Pre-emerge Herbicidal Activity AML (phytotoxicity rating) [28]: 100
- Post-emerge crop damage CORN (phytotoxicity rating) [29, 35]: 5
- Post-emerge Herbicidal Activity AML (phytotoxicity rating) [30]: 95
